# Measured values: patent publication US9493466B2, “Treatment of cancer with TOR kinase inhibitors” (Signal Pharmaceuticals, LLC, priority 2011, dated 2016)
# Legend:
# Type in all cases: cell-based
# HepG2 = assay: Growth inhibition assay for HCC lines; conditions: HepG2, 96 hours, DMEM + 10% FBS
# Method: (§1) Growth Inhibition Assay for HCC and NHL Lines. The seeding density for each cell line was optimized to ensure assay linearity in 384-well plates.
# (§2) Compound 1 was dissolved in dimethyl sulfoxide (DMSO) to prepare a 10 mM stock solution. A serial titration was performed to produce a working concentration range of […] to 10 mM. Aliquots to produce final concentrations of 1.5 nM to 10 μM were spotted via an acoustic dispenser (EDC ATS-100) into an empty 384-well plate. Compound 1 was spotted in a 10-point serial dilution fashion (3-fold dilution) in duplicate within the plate. The DMSO concentration was kept constant for a final assay concentration of 0.1% DMSO. Plates were replicated for use with different cell lines and testing periods. After compound plate replication, all plates were sealed (Agilent ThermoLoc) and stored at −20° C. for up to 1 month. […] When ready for testing, plates were removed from the freezer, thawed, and unsealed just prior to the addition of the test cells. Prior to testing, cells were grown and expanded in culture flasks to provide sufficient amounts of starting material. Cells were then diluted to the appropriate densities and added directly to the compound-spotted 384-well plates. Cells were allowed to grow for 96 hours at 37° C./5% CO2. At the time when compound was added (t0), initial cell number was assessed via a viability assay (Cell Titer-Glo) by quantifying the level of luminescence generated by ATP present in viable cells. After 96 hours, cell viability of compound-treated cells was assessed via Cell Titer-Glo and luminescence measurement. Cell lines were assayed for growth inhibition by Compound 1 in at least 3 independent tests. A control cell line (the lung tumor cell line, A549) was included in each of the assays. The compound response against this control cell line was monitored closely to enable comparison of the data generated through the assay period. All data were normalized and presented as a percentage of the DMSO-treated cells. Results were then expressed as a GI50 value. The GI50 value corrects for the cell count at time zero. In addition, the IC50 value of Compound 1 for each cell line was calculated.
# HuH-7 = assay: Growth inhibition assay for HCC lines; conditions: HuH-7, 96 hours, DMEM + 10% FBS
# Method: as §1, §2
# SNU-475 = assay: Growth inhibition assay for HCC lines; conditions: SNU-475, 96 hours, RPMI 1640 + 10% FBS
# Method: as §1, §2
# SNU-449 = assay: Growth inhibition assay for HCC lines; conditions: SNU-449, 96 hours, RPMI 1640 + 10% FBS
# Method: as §1, §2
# SNU-423 = assay: Growth inhibition assay for HCC lines; conditions: SNU-423, 96 hours, RPMI 1640 + 10% FBS
# Method: as §1, §2
# SNU-387 = assay: Growth inhibition assay for HCC lines; conditions: SNU-387, 96 hours, RPMI 1640 + 10% FBS
# Method: as §1, §2
# PLC-PRF-5 = assay: Growth inhibition assay for HCC lines; conditions: PLC-PRF-5, 96 hours, DMEM + 10% FBS
# Method: as §1, §2
# SK-HEP-1 = assay: Growth inhibition assay for HCC lines; conditions: SK-HEP-1, 96 hours, DMEM + 10% FBS
# Method: as §1, §2
# SNU-398 = assay: Growth inhibition assay for HCC lines; conditions: SNU-398, 96 hours, RPMI 1640 + 10% FBS
# Method: as §1, §2
# SNU-182 = assay: Growth inhibition assay for HCC lines; conditions: SNU-182, 96 hours, RPMI 1640 + 10% FBS
# Method: as §1, §2
# Hep3B = assay: Growth inhibition assay for HCC lines; conditions: 96 hours, DMEM + 10% FBS
# Method: as §1, §2
# SU-DHL-8 = assay: Growth inhibition assay for NHL lines; conditions: SU-DHL-8, NHL DLBCL, 96 hours, n ≧ 3
# Method: as §1, §2
# SU-DHL-16 = assay: Growth inhibition assay for NHL lines; conditions: SU-DHL-16, NHL DLBCL, 96 hours, n ≧ 3
# Method: as §1, §2
# JVM-2 = assay: Growth inhibition assay for NHL lines; conditions: JVM-2, NHL MCL, 96 hours, n ≧ 3
# Method: as §1, §2
# Pfeiffer = assay: Growth inhibition assay for NHL lines; conditions: NHL DLBCL, 96 hours, n ≧ 3
# Method: as §1, §2
# Mino = assay: Apoptosis assay for NHL lines (Caspase 3/7-Glo); conditions: NHL MCL, 24 hours, n = 1
# Method: (§3) Apoptosis Assay for NHL Lines. Prior to testing, cells were grown and expanded in culture flasks to provide sufficient amounts of starting material. Cells were then diluted to their desired densities and added directly to compound-spotted 384-well plates. Cells were allowed to grow for 24 hours in 5% CO2 at 37° C. The apoptotic response was assessed by quantifying the activities of caspase 3 and caspase 7 (Caspase 3/7-Glo) in treated cells and control cells at the 24-hour time point. All data was normalized and represented as a value relative to the DMSO-treated cells. Results were then expressed as CalX, which is the minimum compound concentration required to double the levels of caspase 3/7 relative to those of the DMSO-treated cells during their treatment period.
# KARPAS-1106P = assay: Apoptosis assay for NHL lines (Caspase 3/7-Glo); conditions: NHL DLBCL, 24 hours, n = 1
# Method: as §3
# Toledo = assay: Apoptosis assay for NHL lines (Caspase 3/7-Glo); conditions: NHL DLBCL, 24 hours, n = 1
# Method: as §3
# RIVA = assay: Apoptosis assay for NHL lines (Caspase 3/7-Glo); conditions: NHL DLBCL, 24 hours, n = 1
# Method: as §3
# OCI-LY-19 = assay: Apoptosis assay for NHL lines (Caspase 3/7-Glo); conditions: OCI-LY-19, NHL DLBCL, 24 hours, n = 1
# Method: as §3
# WSU-NHL = assay: Apoptosis assay for NHL lines (Caspase 3/7-Glo); conditions: NHL FL, 24 hours, n = 1
# Method: as §3
# OCI-LY-10 = assay: Apoptosis assay for NHL lines (Caspase 3/7-Glo); conditions: OCI-LY-10, NHL DLBCL, 24 hours, n = 1
# Method: as §3
compound,measurement,setting,value
"CO[C@H]1CC[C@H](N2C(=O)CNc3ncc(-c4ccc(C(C)(C)O)nc4)nc32)CC1 [Compound 1, 7-(6-(2-hydroxypropan-2-yl)pyridin-3-yl)-1-((1r,4r)-4-methoxycyclohexyl)-3,4-dihydropyrazino-[2,3-b]pyrazin-2(1H)-one]",GI50,HepG2,240 ± 60 nM
same,IC50,HepG2,320 ± 130 nM
same,GI50,HuH-7,70 ± 30 nM
same,IC50,HuH-7,100 ± 40 nM
same,GI50,SNU-475,460 ± 90 nM
same,IC50,SNU-475,690 ± 140 nM
same,GI50,SNU-449,370 ± 70 nM
same,IC50,SNU-449,480 ± 110 nM
same,GI50,SNU-423,300 ± 50 nM
same,IC50,SNU-423,480 ± 60 nM
same,GI50,SNU-387,1260 ± 470 nM
same,IC50,SNU-387,2470 ± 930 nM
same,GI50,PLC-PRF-5,310 ± 70 nM
same,IC50,PLC-PRF-5,430 ± 70 nM
same,GI50,SK-HEP-1,270 ± 40 nM
same,IC50,SK-HEP-1,330 ± 70 nM
same,GI50,SNU-398,280 ± 60 nM
same,IC50,SNU-398,290 ± 50 nM
same,GI50,SNU-182,80 ± 30 nM
same,IC50,SNU-182,260 ± 100 nM
same,GI50,Hep3B,260 ± 70 nM
same,IC50,Hep3B,340 ± 110 nM
same,GI50,SU-DHL-8,80 ± 40 nM
same,IC50,SU-DHL-8,100 ± 40 nM
same,GI50,SU-DHL-16,110 ± 20 nM
same,IC50,SU-DHL-16,110 ± 20 nM
same,GI50,JVM-2,260 ± 50 nM
same,IC50,JVM-2,440 ± 180 nM
same,GI50,Pfeiffer,90 ± 40 nM
same,IC50,Pfeiffer,190 ± 70 nM
same,CalX (minimum concentration to double caspase 3/7),Mino,0.53
same,CalX (minimum concentration to double caspase 3/7),KARPAS-1106P,0.25
same,Apoptotic,Toledo,N/Y
same,CalX (minimum concentration to double caspase 3/7),Toledo,3.48
same,Apoptotic,RIVA,N/Y
same,CalX (minimum concentration to double caspase 3/7),RIVA,3.84
same,CalX (minimum concentration to double caspase 3/7),OCI-LY-19,1.13
same,CalX (minimum concentration to double caspase 3/7),WSU-NHL,0.16
same,CalX (minimum concentration to double caspase 3/7),OCI-LY-10,0.7
